Experimental data from PubChem BioAssay (NCI).
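These data come from cells grown in 96-well plates and exposed to compound for 48 hours at five concentrations. TGI is the concentration that stops growth completely.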

Experiments:
Assay in all cases: inhibition of tumour cell growth, NCI panel, 48 h
NCI/ADR-RES ovarian = tested on: NCI/ADR-RES ovarian
HCT-116 colon = tested on: HCT-116 colon
ACHN renal = tested on: ACHN renal
MALME-3M melanoma = tested on: MALME-3M melanoma
T-47D breast = tested on: T-47D breast
EKVX NSCLC = tested on: EKVX NSCLC
OVCAR-5 ovarian = tested on: OVCAR-5 ovarian
SNB-75 CNS = tested on: SNB-75 CNS
NCI-H522 lung = tested on: NCI-H522 lung
UACC-257 melanoma = tested on: UACC-257 melanoma
MCF7 breast = tested on: MCF7 breast

| SMILES | TGI (NCI/ADR-RES ovarian) | TGI (HCT-116 colon) | TGI (ACHN renal) | TGI (MALME-3M melanoma) | TGI (T-47D breast) | TGI (EKVX NSCLC) | TGI (OVCAR-5 ovarian) | TGI (SNB-75 CNS) | TGI (NCI-H522 lung) | TGI (UACC-257 melanoma) | TGI (MCF7 breast) |
| --- | --- | --- | --- | --- | --- | --- | --- | --- | --- | --- | --- |
| O=c1[nH]c(Nc2cccc(CC(F)(F)F)c2)nc2nc[nH]c12 | > 100 µM | > 100 µM | > 100 µM | > 100 µM | > 100 µM | > 100 µM | > 100 µM | > 100 µM | > 100 µM | > 100 µM | > 100 µM |
| COC(=O)c1c(C)cccc1C1CN=NC12Cc1ccc(C)cc1C2=O (stereo unspecified) | > 100 µM | 74 µM | > 100 µM | > 100 µM | 49.8 µM | > 100 µM | > 100 µM | > 100 µM | 91.9 µM | > 100 µM | > 100 µM |
| COc1cc(Br)cc2cc(-c3cn4ccsc4n3)c(=O)oc12 | > 100 µM | > 100 µM | > 100 µM | > 100 µM | > 100 µM | > 100 µM | > 100 µM | > 100 µM | > 100 µM | > 100 µM | 38.6 µM |
| c1csc(-c2ccc(-c3cccc4nsnc34)s2)c1 | > 100 µM | > 100 µM | > 100 µM | > 100 µM | > 100 µM | > 100 µM | > 100 µM | > 100 µM | > 100 µM | > 100 µM | > 100 µM |
| O=C1CCCc2cc3c(cc21)CC1(Cc2ccccc2C1)C3 | > 100 µM | 13.6 µM | 32.9 µM | 70.1 µM | 96.9 µM | > 100 µM | > 100 µM | 3 µM | 21.5 µM | 20.2 µM | 61.2 µM |
| CC(=O)OC1CC(OC2C(O)CC(OC3C(O)CC(OC4CCC5(C)C(CCC6C5CC(O)C5(C)C(C7=CC(=O)OC7)CCC65O)C4)OC3C)OC2C)OC(C)C1OC1OC(CO)C(O)C(O)C1O (stereo unspecified) | 0.122 µM | 0.139 µM | 0.146 µM | 0.249 µM | 0.633 µM | 0.0981 µM | 0.222 µM | 0.846 µM | 0.114 µM | 0.767 µM | 0.431 µM |
| CC[C@@H]1CC[C@@H]2[C@H](CC[C@]3(C)[C@@H](OC(C)=O)CC[C@@H]23)[C@H]1COC(C)=O | 76 µM | 31.7 µM | > 100 µM | 35.8 µM | > 100 µM | 73.6 µM | 73.8 µM | > 100 µM | 56.1 µM | 65.6 µM | > 100 µM |
| COC(=O)C1SC(SC)=NC12c1ccccc1Nc1ccccc12 (stereo unspecified) | > 100 µM | > 100 µM | > 100 µM | 65.1 µM | > 100 µM | > 100 µM | > 100 µM | > 100 µM | 49.3 µM | 84.6 µM | 82.7 µM |
| CCCN(C(=O)c1ccccc1)C(C#N)c1ccc(C(C#N)N(CCC)C(=O)c2ccccc2)cc1 (stereo unspecified) | > 100 µM | > 100 µM | > 100 µM | > 100 µM | 85.7 µM | > 100 µM | > 100 µM | 73.3 µM | > 100 µM | > 100 µM | > 100 µM |
| CC(C)(C)N1CSC(=S)N(Cc2ccco2)C1 | 18.4 µM | 16.7 µM | 13.7 µM | 16.6 µM | 46.4 µM | 30.2 µM | 11.7 µM | 26.4 µM | 12 µM | 25 µM | 14.3 µM |
| Cc1nc2n(c1/C=C1/C(=O)Nc3cccc(Cl)c31)CCS2 | > 100 µM | > 100 µM | > 100 µM | > 100 µM | 54.9 µM | > 100 µM | > 100 µM | 37.5 µM | > 100 µM | > 100 µM | > 100 µM |
| Cc1ccccc1C(=O)N1CCc2c([nH]c3ccccc23)C1 | 62.7 µM | 33 µM | > 100 µM | 81.5 µM | 71.8 µM | 75 µM | 76.3 µM | 61.9 µM | 46.1 µM | 58.2 µM | 51.8 µM |
| N#Cc1c(-c2ccccc2)/c(=C\Nc2cccc(C(F)(F)F)c2)c(=O)n2c1nc1ccccc12 | 80.4 µM | > 100 µM | > 100 µM | > 100 µM | > 100 µM | 74.2 µM | > 100 µM | > 100 µM | 32.1 µM | > 100 µM | > 100 µM |
| COc1cc2nc3n(c(=O)c2cc1OC)-c1ccc([N+](=O)[O-])cc1C3=O | > 100 µM | > 100 µM | > 100 µM | > 100 µM | > 100 µM | > 100 µM | > 100 µM | > 100 µM | > 100 µM | > 100 µM | 32 µM |
| COc1ccc2cc(NC(=O)N/N=C\c3ccc([N+](=O)[O-])cc3)ccc2c1 | 97.2 µM | > 100 µM | > 100 µM | > 100 µM | > 100 µM | > 100 µM | > 100 µM | 65.4 µM | 51 µM | > 100 µM | > 100 µM |
| CCCCCCc1cc2cc(-c3csc(CC#N)n3)c(=O)oc2cc1O | > 100 µM | > 100 µM | > 100 µM | > 100 µM | > 100 µM | > 100 µM | > 100 µM | > 100 µM | > 100 µM | > 100 µM | > 100 µM |
